Changes are numbered by the printed parent chain.
Key:
[1] = biological target: T1, AtPPO1 S305L Y361C L362F Y426M L479M (SEQ ID NO.134) (Arabidopsis thaliana, UniProt P55826, L479M/S305L/Y361C/Y362F/Y426M); assay: fluorescent Protoporphyrinogen Oxidase assay, crude extract; format: biochemical; settings: read-out: percentage inhibition
T1 sequence (P55826 35-537 S305L/Y361C/Y362F/Y426M/L479M): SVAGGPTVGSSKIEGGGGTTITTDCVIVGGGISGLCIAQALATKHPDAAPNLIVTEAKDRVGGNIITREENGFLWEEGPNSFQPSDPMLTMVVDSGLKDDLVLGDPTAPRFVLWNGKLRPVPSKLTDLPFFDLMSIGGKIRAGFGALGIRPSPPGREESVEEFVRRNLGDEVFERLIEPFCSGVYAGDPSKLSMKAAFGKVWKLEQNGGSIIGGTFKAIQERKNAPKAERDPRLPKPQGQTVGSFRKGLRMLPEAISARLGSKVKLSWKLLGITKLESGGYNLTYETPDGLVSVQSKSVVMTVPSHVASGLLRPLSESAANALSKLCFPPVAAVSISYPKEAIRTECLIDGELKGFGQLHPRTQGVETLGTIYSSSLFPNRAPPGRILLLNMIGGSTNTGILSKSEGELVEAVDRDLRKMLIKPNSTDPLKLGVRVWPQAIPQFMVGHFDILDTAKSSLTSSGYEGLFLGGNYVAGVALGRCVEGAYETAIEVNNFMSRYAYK

WT (SEQ ID NO.1) AtPPO1 = biological target: T2, WT (SEQ ID NO.1) AtPPO1 (Arabidopsis thaliana, UniProt P55826); assay: as above; format: biochemical; settings: read-out: percentage inhibition
T2 construct: made in house; host or cells: E. coli BL21 (DE3) hemG, crude extract
T2 sequence (P55826 35-537): T1 sequence (P55826 35-537 S305L/Y361C/Y362F/Y426M/L479M) with L271S, C327Y, F328Y, M392Y, M445L

With `CCOC(=O)[C@]1(C)CC(c2cc(-n3c(=O)n(C)c(=S)n(C)c3=O)c(F)cc2Cl)=NO1` [Herbicide D, ethyl (5S)-3-[2-chloro-5-(3,5-dimethyl-2,6-dioxo-4-thioxo-1,3,5-triazinan-1-yl)-4-fluoro-phenyl]-5-methyl-4H-isoxazole-5-carboxylate] the inhibition at 0.1 ppm [1] was 0%, the inhibition at 1 ppm [1] was 56% and the inhibition at 10 ppm [1] was 85%. It also gave an inhibition at 100 ppm [1] of 100%, an inhibition at 0.1 ppm (WT (SEQ ID NO.1) AtPPO1) of 91% and an inhibition at 1 ppm (WT (SEQ ID NO.1) AtPPO1) of 90%. For the same compound, the inhibition at 10 ppm (WT (SEQ ID NO.1) AtPPO1) was 96% and the inhibition at 100 ppm (WT (SEQ ID NO.1) AtPPO1) was 100%.
With `CCOC(=O)C1(C)CC(c2cc(-n3c(=O)cc(C(F)(F)F)n(C)c3=O)c(F)cc2Cl)=NO1` (stereo not shown) [Herbicide C, 3-(2-chloro-4-fluoro-5-(3-methyl-2,6-dioxo-4-trifluoromethyl-3,6-dihydropyrimidin-1(2H)-yl)phenyl)-5-methyl-4,5-dihydroisoxazole-5-carboxylic acid ethyl ester] the inhibition at 0.1 ppm [1] was 19%, the inhibition at 1 ppm [1] was 65% and the inhibition at 10 ppm [1] was 99%. For the same compound, the inhibition at 100 ppm [1] was 100%, the inhibition at 0.1 ppm (WT (SEQ ID NO.1) AtPPO1) was 91% and the inhibition at 1 ppm (WT (SEQ ID NO.1) AtPPO1) was 91%. The inhibition at 10 ppm (WT (SEQ ID NO.1) AtPPO1) was 98% and the inhibition at 100 ppm (WT (SEQ ID NO.1) AtPPO1) was 93%.
Work on `C#CCN1C(=O)C(F)(F)Oc2cc(F)c(-n3c(=O)n(C)c(=S)n(C)c3=O)cc21` [Herbicide B, trifludimoxazin] yielded an inhibition at 0.1 ppm [1] of 100%, an inhibition at 1 ppm [1] of 100% and an inhibition at 10 ppm [1] of 100%. It also gave an inhibition at 100 ppm [1] of 100%, an inhibition at 0.1 ppm (WT (SEQ ID NO.1) AtPPO1) of 97% and an inhibition at 1 ppm (WT (SEQ ID NO.1) AtPPO1) of 97%. It also gave an inhibition at 10 ppm (WT (SEQ ID NO.1) AtPPO1) of 96% and an inhibition at 100 ppm (WT (SEQ ID NO.1) AtPPO1) of 100%.
`CC(C)N(C)S(=O)(=O)NC(=O)c1cc(-n2c(=O)cc(C(F)(F)F)n(C)c2=O)c(F)cc1Cl` [Herbicide E, saflufenacil] was tested, and the inhibition at 0.1 ppm [1] was 0%, the inhibition at 1 ppm [1] was 39% and the inhibition at 10 ppm [1] was 80%. The inhibition at 100 ppm [1] was 99%, the inhibition at 0.1 ppm (WT (SEQ ID NO.1) AtPPO1) was 91% and the inhibition at 1 ppm (WT (SEQ ID NO.1) AtPPO1) was 97%. For the same compound, the inhibition at 10 ppm (WT (SEQ ID NO.1) AtPPO1) was 100% and the inhibition at 100 ppm (WT (SEQ ID NO.1) AtPPO1) was 100%.
`CCOC(=O)COc1ncccc1Oc1cc(-n2c(=O)cc(C(F)(F)F)n(C)c2=O)c(F)cc1Cl` [Herbicide A, epyrifenacil] gave an inhibition at 0.1 ppm [1] of 0%, an inhibition at 1 ppm [1] of 40% and an inhibition at 10 ppm [1] of 83%. The inhibition at 100 ppm [1] was 92%, the inhibition at 0.1 ppm (WT (SEQ ID NO.1) AtPPO1) was 94% and the inhibition at 1 ppm (WT (SEQ ID NO.1) AtPPO1) was 100%. For the same compound, the inhibition at 10 ppm (WT (SEQ ID NO.1) AtPPO1) was 97% and the inhibition at 100 ppm (WT (SEQ ID NO.1) AtPPO1) was 100%.
